Reference: patent US20260028354A1, “TETRAHYDRONAPHTHALENE DERIVATIVES AS ESTROGEN RECEPTOR DEGRADERS” (REGENT OF THE UNIVERSITY OF MICHIGAN, priority 2022, published 2026)

Legend:
ER in MCF-7 cells = ER in MCF-7 cells (Homo sapiens (Human), UniProt P03372); assay: In-cell Western (ICW) ER degradation assay in MCF-7 cells; format: cell-based; conditions: 16 hrs treatment; for Dmax: MCF7, MCF-7, maximal ER degradation, read-out: MCF7 Dmax; for DC50: MCF-7, ER degradation, read-out: MCF7 DC50
ER in T47D cells = ER in T47D cells (Homo sapiens (Human), UniProt P03372); assay: In-cell Western (ICW) ER degradation assay in T47D cells; format: cell-based; conditions: 16 hrs treatment; for DC50: ER degradation; for Dmax: read-out: T47D Dmax
Sequence of ER in T47D cells (P03372 whole entry): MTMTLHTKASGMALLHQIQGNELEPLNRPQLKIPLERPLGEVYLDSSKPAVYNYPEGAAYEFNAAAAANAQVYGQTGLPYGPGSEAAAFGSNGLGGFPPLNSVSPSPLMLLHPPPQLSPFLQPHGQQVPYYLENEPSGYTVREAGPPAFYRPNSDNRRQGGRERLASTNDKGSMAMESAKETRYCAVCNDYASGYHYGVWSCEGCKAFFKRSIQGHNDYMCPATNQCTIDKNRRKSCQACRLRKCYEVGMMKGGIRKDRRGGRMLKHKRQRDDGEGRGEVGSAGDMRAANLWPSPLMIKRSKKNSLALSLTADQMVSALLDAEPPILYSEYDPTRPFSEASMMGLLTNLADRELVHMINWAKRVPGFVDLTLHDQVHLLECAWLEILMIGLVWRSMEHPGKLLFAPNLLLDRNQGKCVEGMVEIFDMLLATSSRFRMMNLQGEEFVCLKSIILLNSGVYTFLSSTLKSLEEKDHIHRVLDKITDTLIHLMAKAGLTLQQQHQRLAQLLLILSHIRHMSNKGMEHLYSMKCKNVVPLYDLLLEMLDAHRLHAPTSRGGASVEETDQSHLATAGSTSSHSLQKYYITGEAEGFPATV

CRBN/DDB1 = CRBN/DDB1 (Homo sapiens (Human), UniProt Q96SW2); format: binding; conditions: His tagged CRBN+DDB1, Cy5-labeled Thalidomide probe, one hour; read-out: CRBN HTRF IC50
Sequence of CRBN/DDB1 (Q96SW2 whole entry, species assumed): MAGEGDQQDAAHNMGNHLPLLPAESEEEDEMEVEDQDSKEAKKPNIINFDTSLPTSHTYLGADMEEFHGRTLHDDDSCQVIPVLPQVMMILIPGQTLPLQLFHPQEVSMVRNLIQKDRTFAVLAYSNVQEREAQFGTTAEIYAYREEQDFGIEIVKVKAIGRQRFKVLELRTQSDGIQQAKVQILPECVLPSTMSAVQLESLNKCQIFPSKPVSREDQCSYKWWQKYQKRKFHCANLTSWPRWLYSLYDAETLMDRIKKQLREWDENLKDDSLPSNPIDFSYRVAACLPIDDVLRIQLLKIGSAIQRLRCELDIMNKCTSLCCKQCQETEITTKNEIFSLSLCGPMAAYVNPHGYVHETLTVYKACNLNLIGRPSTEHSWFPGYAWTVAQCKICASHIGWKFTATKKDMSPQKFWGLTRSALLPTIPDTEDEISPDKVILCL
Sequence of CRBN/DDB1 (Q16531 whole entry partner, species assumed): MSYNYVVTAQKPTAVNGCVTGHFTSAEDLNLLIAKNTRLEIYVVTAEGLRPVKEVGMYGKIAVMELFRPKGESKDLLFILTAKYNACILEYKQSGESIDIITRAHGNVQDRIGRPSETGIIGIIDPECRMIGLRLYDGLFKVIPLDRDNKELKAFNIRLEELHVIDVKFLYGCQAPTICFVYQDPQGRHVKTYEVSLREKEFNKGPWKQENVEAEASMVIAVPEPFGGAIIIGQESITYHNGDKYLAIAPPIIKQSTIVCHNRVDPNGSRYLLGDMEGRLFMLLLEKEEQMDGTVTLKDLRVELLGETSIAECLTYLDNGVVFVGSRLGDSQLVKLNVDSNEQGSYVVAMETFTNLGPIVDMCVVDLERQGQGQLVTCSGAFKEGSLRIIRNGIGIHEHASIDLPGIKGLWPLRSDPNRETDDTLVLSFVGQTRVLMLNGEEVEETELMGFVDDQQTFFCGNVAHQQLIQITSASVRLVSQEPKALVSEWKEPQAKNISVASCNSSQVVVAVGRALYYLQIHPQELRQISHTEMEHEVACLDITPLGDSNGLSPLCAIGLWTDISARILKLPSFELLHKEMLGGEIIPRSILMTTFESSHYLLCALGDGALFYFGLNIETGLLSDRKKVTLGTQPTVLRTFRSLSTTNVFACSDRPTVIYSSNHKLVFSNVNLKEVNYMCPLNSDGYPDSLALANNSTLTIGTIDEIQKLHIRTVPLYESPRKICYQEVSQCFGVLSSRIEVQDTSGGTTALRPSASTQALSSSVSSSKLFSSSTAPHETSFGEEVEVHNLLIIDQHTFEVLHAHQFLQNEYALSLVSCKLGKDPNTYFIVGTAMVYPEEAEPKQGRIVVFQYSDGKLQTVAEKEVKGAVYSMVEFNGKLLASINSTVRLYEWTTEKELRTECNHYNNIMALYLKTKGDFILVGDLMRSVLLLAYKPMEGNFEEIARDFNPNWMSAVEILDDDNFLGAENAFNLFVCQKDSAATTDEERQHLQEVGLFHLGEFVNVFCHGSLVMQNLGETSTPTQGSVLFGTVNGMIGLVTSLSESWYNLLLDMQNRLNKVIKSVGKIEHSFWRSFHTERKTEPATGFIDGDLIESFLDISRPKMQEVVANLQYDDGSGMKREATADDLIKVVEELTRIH
Method: The binding potency was determined using HTRF assay technology (Perkin Elmer). Compounds were serially diluted in DMSO and […] volume was transferred to white 384-well plate.

Sequence of ER in MCF-7 cells (P03372 whole entry): as the sequence (P03372 whole entry) above

Compound | Dmax (ER in MCF-7 cells) | DC50 (ER in MCF-7 cells) | DC50 (ER in T47D cells) | Dmax (ER in T47D cells; maximal ER degradation) | IC50 (CRBN/DDB1) | MCF7 Dmax (ER in MCF-7 cells; MCF-7, maximal ER degradation) | T47D Dmax (ER in T47D cells; maximal ER degradation)
COc1cc(N2CCC3(CC2)CC(CN2CCN4c5ccc6c(c5OC[C@H]4C2)CN([C@H]2CCC(=O)NC2=O)C6=O)C3)ccc1[C@@H]1c2ccc(O)cc2CC[C@@H]1c1ccccc1 (single isomer, unassigned) [Compound A10] | > 75% | < 1 nM | < 1 nM | > 75% | < 50 nM |  | 
O=C1CC[C@H](NC(=O)c2ccc3c(n2)OC[C@H]2CN(C[C@H]4COC5(CCN(c6ccc([C@@H]7c8ccc(O)cc8CC[C@@H]7c7ccccc7)cc6)CC5)C4)CCN32)C(=O)N1 (single isomer, unassigned) [Compound A13] | 50 to 75% | 1 to 10 nM | 1 to 10 nM | 50 to 75% | 500 to 5000 nM |  | 
O=C1CC[C@H](NC(=O)c2ccc3c(n2)OC[C@H]2CN(C[C@@H]4COC5(CCN(c6ccc([C@@H]7c8ccc(O)cc8CC[C@@H]7c7ccccc7)cc6)CC5)C4)CCN32)C(=O)N1 (single isomer, unassigned) [Compound A14] | 50 to 75% | < 1 nM | < 1 nM | 50 to 75% | 500 to 5000 nM |  | 
O=C1CC[C@H](NC(=O)c2ccc3c(n2)OC[C@H]2CN(C[C@H]4COC5(CCN(c6ccc([C@H]7c8ccc(O)cc8CC[C@H]7c7ccccc7)cc6)CC5)C4)CCN32)C(=O)N1 (single isomer, unassigned) [Compound A15] | 25 to 50% | 10 to 100 nM | 10 to 100 nM | 25 to 50% | 500 to 5000 nM |  | 
O=C1CC[C@H](NC(=O)c2ccc3c(n2)OC[C@H]2CN(C[C@@H]4COC5(CCN(c6ccc([C@H]7c8ccc(O)cc8CC[C@H]7c7ccccc7)cc6)CC5)C4)CCN32)C(=O)N1 (single isomer, unassigned) [Compound A16] | 50 to 75% | 1 to 10 nM | < 1 nM | 50 to 75% | 500 to 5000 nM |  | 
O=C1CC[C@H](N2Cc3cc4c(cc3C2=O)OC[C@H]2CN(C[C@H]3COC5(CCN(c6ccc([C@@H]7c8ccc(O)cc8CC[C@@H]7c7ccccc7)cc6)CC5)C3)CCN42)C(=O)N1 (single isomer, unassigned) [Compound A17] | 25 to 50% | 1 to 10 nM | 1 to 10 nM | 25 to 50% | 500 to 5000 nM |  | 
O=C1CC[C@H](N2Cc3cc4c(cc3C2=O)OC[C@H]2CN(C[C@H]3COC5(CCN(c6ccc([C@H]7c8ccc(O)cc8CC[C@H]7c7ccccc7)cc6)CC5)C3)CCN42)C(=O)N1 (single isomer, unassigned) [Compound A19] | 50 to 75% | 1 to 10 nM | 1 to 10 nM | 50 to 75% | 50 to 500 nM |  | 
O=C1CC[C@H](Nc2ccc(C3CCN(C[C@H]4COC5(CCN(c6ccc([C@@H]7c8ccc(O)cc8CC[C@@H]7c7ccccc7)cc6)CC5)C4)CC3)cc2)C(=O)N1 (single isomer, unassigned) [Compound A27] | 25 to 50% | 10 to 100 nM | > 100 nM | < 25% | 50 to 500 nM |  | 
O=C1CC[C@H](Nc2ccc(C3CCN(C[C@@H]4COC5(CCN(c6ccc([C@@H]7c8ccc(O)cc8CC[C@@H]7c7ccccc7)cc6)CC5)C4)CC3)cc2)C(=O)N1 (single isomer, unassigned) [Compound A28] | 25 to 50% | 10 to 100 nM | 10 to 100 nM | 25 to 50% | 50 to 500 nM |  | 
O=C1CC[C@@H](Nc2ccc(C3CCN(C[C@@H]4COC5(CCN(c6ccc([C@@H]7c8ccc(O)cc8CC[C@@H]7c7ccccc7)cc6)CC5)C4)CC3)cc2)C(=O)N1 (single isomer, unassigned) [Compound A29] | 25 to 50% | 10 to 100 nM | 10 to 100 nM | 25 to 50% | 50 to 500 nM |  | 
O=C1CC[C@H](N2Cc3c(ccc4c3OC[C@H]3CN(CC5COC6(C5)CN(c5ccc([C@@H]7c8ccc(O)cc8CC[C@@H]7c7ccccc7)cc5)C6)CCN43)C2=O)C(=O)N1 (single isomer, unassigned) [Compound A40] |  | 10 to 100 nM | 10 to 100 nM |  | < 50 nM | C (“C”: 25-50%) | C (“C”: 25-50%)
COc1cc(N2CC3(CC(CN4CCN5c6ccc7c(c6OC[C@H]5C4)CN([C@H]4CCC(=O)NC4=O)C7=O)CO3)C2)ccc1[C@H]1c2ccc(O)cc2CC[C@H]1c1ccccc1 (single isomer, unassigned) [Compound A47] | 50 to 75% | 10 to 100 nM | 1 to 10 nM | 25 to 50% | 50 to 500 nM |  | 
COc1cc(N2CC3(CC(CN4CCN5c6ccc7c(c6OC[C@H]5C4)CN([C@H]4CCC(=O)NC4=O)C7=O)CO3)C2)ccc1[C@@H]1c2ccc(O)cc2CC[C@@H]1c1ccccc1 (single isomer, unassigned) [Compound A48] | 50 to 75% | 1 to 10 nM | 1 to 10 nM | 50 to 75% | 50 to 500 nM |  | 
O=C1CC[C@H](Nc2ccc(C3CCN(C[C@H]4COC5(CCN(c6ccc([C@H]7c8ccc(O)cc8CC[C@H]7c7ccccc7)cc6)CC5)C4)CC3)cc2)C(=O)N1 (single isomer, unassigned) [Compound A49] | 50 to 75% | < 1 nM | < 1 nM | 50 to 75% | 50 to 500 nM |  | 
O=C1CC[C@H](Nc2ccc(C3CCN(C[C@@H]4COC5(CCN(c6ccc([C@H]7c8ccc(O)cc8CC[C@H]7c7ccccc7)cc6)CC5)C4)CC3)cc2)C(=O)N1 (single isomer, unassigned) [Compound A50] | 50 to 75% | < 1 nM | < 1 nM | 50 to 75% | 50 to 500 nM |  | 
O=C1CC[C@@H](Nc2ccc(C3CCN(C[C@H]4COC5(CCN(c6ccc([C@@H]7c8ccc(O)cc8CC[C@@H]7c7ccccc7)cc6)CC5)C4)CC3)cc2)C(=O)N1 (single isomer, unassigned) [Compound A51] | < 25% | > 100 nM | > 100 nM | < 25% | 50 to 500 nM |  | 
O=C1CC[C@H](Nc2ccc(C3CCN(C[C@@H]4COC5(CCN(c6ccc([C@H]7c8ccc(O)cc8CC[C@H]7c7ccccc7)cc6)CC5)C4)CC3)c(F)c2)C(=O)N1 (single isomer, unassigned) [Compound A59] | < 25% | < 1 nM | > 100 nM | < 25% | 50 to 500 nM |  | 
O=C1CC[C@@H](Nc2ccc(C3CCN(C[C@@H]4COC5(CCN(c6ccc([C@H]7c8ccc(O)cc8CC[C@H]7c7ccccc7)cc6)CC5)C4)CC3)c(F)c2)C(=O)N1 (single isomer, unassigned) [Compound A60] | 25 to 50% | > 100 nM | > 100 nM | < 25% | 50 to 500 nM |  | 
O=C1CC[C@H](Nc2ccc(C3CCN(C[C@@H]4COC5(CCN(c6ccc([C@@H]7c8ccc(O)cc8CC[C@@H]7c7ccccc7)cc6)CC5)C4)CC3)c(F)c2)C(=O)N1 (single isomer, unassigned) [Compound A61] | < 25% | > 100 nM | > 100 nM | < 25% | 50 to 500 nM |  | 
O=C1CC[C@@H](Nc2ccc(C3CCN(C[C@@H]4COC5(CCN(c6ccc([C@@H]7c8ccc(O)cc8CC[C@@H]7c7ccccc7)cc6)CC5)C4)CC3)c(F)c2)C(=O)N1 (single isomer, unassigned) [Compound A62] | 25 to 50% | 10 to 100 nM | 1 to 10 nM | 25 to 50% | 50 to 500 nM |  | 
O=C1CC[C@@H](Nc2ccc(C3CCN(CC4CC5(CCN(c6ccc([C@@H]7c8ccc(O)cc8CC[C@@H]7c7ccccc7)cc6)CC5)C4)CC3)cc2)C(=O)N1 (single isomer, unassigned) [Compound A66] | 50 to 75% | 1 to 10 nM | 1 to 10 nM | 50 to 75% | 50 to 500 nM |  | 
COc1cc(N2CCC3(CC2)CC(CN2CCN4c5ccc(C(=O)N[C@H]6CCC(=O)NC6=O)nc5OC[C@@H]4C2)C3)ccc1[C@H]1c2ccc(O)cc2CC[C@H]1c1ccccc1 (single isomer, unassigned) [Compound A107] | 50 to 75% | < 1 nM | < 1 nM | 50 to 75% | > 5000 nM |  | 
COc1cc(N2CCC3(CC2)CC(CN2CCC(c4ccc(N[C@H]5CCC(=O)NC5=O)c(F)c4)CC2)C3)ccc1[C@@H]1c2ccc(O)cc2CC[C@@H]1c1ccccc1 (single isomer, unassigned) [Compound A109] | 25 to 50% | < 1 nM | < 1 nM | 50 to 75% | 500 to 5000 nM |  | 
O=C1CC[C@H](N2Cc3c(ccc4c3OC[C@H]3CN(CC5CC6(CCN(c7ccc([C@H]8c9ccc(O)cc9CC[C@H]8c8ccccc8)cn7)CC6)C5)CCN43)C2=O)C(=O)N1 (single isomer, unassigned) [Compound A113] | 25 to 50% | 10 to 100 nM | 10 to 100 nM | 25 to 50% | 50 to 500 nM |  | 
O=C1CC[C@H](N2Cc3c(ccc4c3OC[C@H]3CN(CC5CCC6(CC5)CN(c5ncc([C@H]7c8ccc(O)cc8CC[C@H]7c7ccccc7)cn5)C6)CCN43)C2=O)C(=O)N1 (single isomer, unassigned) [Compound A155] | 25 to 50% | 1 to 10 nM | 10 to 100 nM | < 25% | 50 to 500 nM |  | 
